Assay results published in US20240240226A1, “FLUOROGENIC ASSAY FOR RAPID SCREENING OF BACTERIAL BETA-LACTAMASE ACTIVITY” (The Board of Trustees of the Leland Stanford Junior …, priority 2021, published 2024).

Legend:
E. coli = assay: Two-step filtration CDA/H2O2 urine assay, negative control E. coli; assay type: cell-based; details: E. coli without β-lactamase, concentrated from urine
Experimental: FIG. 4 illustrates the detection of lactam-resistant bacteria in urine samples. a) Illustration of the workflow in bacteria isolation and concentration from a urine sample for detection. The sample is first filtrated by a 5-μm filter to trap cells and large debris followed by a 0.22-μm filter to trap bacteria. The 0.22-μm filter is washed once before PBS/H2O2 (1 mM) is directed through the 0.22-μm filter in the opposite direction with a new syringe to recover the concentrated bacteria for detection in a plate reader. b) Longitudinal monitoring of fluorescence enhancement with CDA and concentrated E. coli, K. pneumoniae, K. pneumoniae/KPC, E. coli/TEM-1, E. coli/IMP-1, E. coli/KPC-3, E. cloacae/IMP, S. marcescens/SME, and E. coli/OXA-48 in the presence of H2O2 (1 mM). Star* indicate clinical isolates. The study was duplicated at room temperature with PBS as the buffer. The signal of CDA alone in PBS containing H2O2 (1 mM) was subtracted and the absolute values were plotted. The working concentration of CDA was 10 μM. Data were collected on a Tecan Safire microplate reader with excitation at 570 nm and emission at 600 nm. A.U. indicates arbitrary units. […]

[1] = tested on: β-lactamases (TEM-1 Bla, AmpC, BlaC, IMP-1, OXA-48, KPC-3); assay: Detection of recombinant β-lactamases by CDA with esterase and H2O2; assay type: biochemical; details: all β-lactamases; esterase 1 μg/mL, H2O2 1 mM, 2 hours, room temperature; 3x SD of negative controls
E. coli/TEM-1 = assay: CDA detection of live E. coli expressing TEM-1 Bla; assay type: cell-based
Experimental: FIG. 3 illustrates the characterization of CDA with HRP, H2O2, E. coli expressing TEM-1 Bla (E. coli/TEM-1) and IMP-1 carbapenemase (E. coli/IMP-1), and K. pneumoniae expressing KPC carbapenemase (K. pneumoniae/KPC). a) Fluorescence enhancement of CDA incubated with different concentrations of E. coli expressing TEM-1 Bla. b) Fluorescence enhancement of CDA; HRP (1 unit/mL), H2O2 (1 μM), and either viable E. coli expressing TEM-1 Bla or bacterial lysate extracted from equal c.f.u. per milliliter. c) Fluorescence enhancement of CDA incubated with different concentrations of E. coli expressing TEM-1 Bla (H2O2, 1 mM). d) Fluorescent intensity of E. coli and E. coli/TEM-1 preincubated with CDA for 20 hours upon addition of H2O2 (500 μM) for 5 min. Error bars represent ±SD, n=3. * p<0.0332; **p<0.0021, ****p<0.0001, ns: not significant. e) Fluorescence enhancement of CDA incubated with different concentrations of E. coli expressing IMP-1 carbapenemase in the presence of H2O2 (1 mM). f) Fluorescence enhancement of CDA incubated with different concentrations of K. pneumoniae expressing KPC carbapenemase (H2O2, 1 mM). […] Data were collected on a Tecan Safire microplate reader with excitation at 570 nm and emission at 600 nm. […]
It was studied if CDA could report β-lactamase activity in live E. coli and Klebsiella pneumoniae (K. pneumoniae) which are commonly found in many infections. Three transformed E. coli strains expressing the most clinically prevalent β-lactamases including TEM-1 Bla (E. coli/TEM-1) and two carbapenemases were evaluated: a metallo-β-lactamase IMP-1 (E. coli/IMP-1) and a unique class A β-lactamase KPC-3 (E. coli/KPC-3) that hydrolyze carbapenem antibiotics. […]
To address the question of whether a higher concentration of H2O2 would equilibrate across membranes of viable bacteria and accelerate the oxidation of processed CDA, a serial dilution of H2O2 (100 μM, 500 μM, 1 mM, 2 mM) was incubated with CDA and different concentrations of E. coli and E. coli/TEM-1 for a longitudinal reading (FIGS. 3c, 21b, and 22). […]

E. coli/KPC-3 = assay: CDA/H2O2 detection of live E. coli expressing KPC-3 carbapenemase; assay type: cell-based; details: CDA 10 μM, H2O2 1 mM, room temperature
Experimental: FIG. 23 illustrates the fluorescence enhancement of CDA incubated with different concentrations of E. coli expressing KPC-3 carbapenemase in PBS at room temperature; CDA, 10 μM, and H2O2, 1 mM. The signal of CDA in H2O2 was subtracted and the absolute values were plotted. Data were collected on a Tecan Safire microplate reader with excitation at 570 nm and emission at 600 nm. A.U. indicates arbitrary units.
Factoring the 100 μL assay volume, as low as 100 bacteria in one 96 well were detectable with the assay. A concentration of H2O2 at 1-2 mM efficiently oxidized the processed CDA to resorufin inside E. coli. Next, the assay was used to detect E. coli/IMP-1 and E. coli/KPC-3 (FIGS. 3e and 23). E. coli/IMP-1 was detected at […] within 2 hours, and E. coli/KPC-3 could be reliably detected at around 10^5-10^6 c.f.u./mL.
Bacteria growth and assay: E. coli (BL21 or TOP10) transformed to express TEM-1 Bla, IMP-1, and KPC3 were grown in LB medium and induced with 0.2% arabinose for 6-8 h at 30° C., 205 rpm. Colony forming units per milliliter (c.f.u./mL) were determined by measuring the UV absorbance at OD600.
For CDA incubation, 10 μM working solution was prepared freshly by diluting stock solution (1 mM in pure DMSO) in PBS (pH 7.05). A light-safe tube or foil wrap was used to prevent photobleaching.

CC(=O)Oc1ccc2c(c1)Oc1cc(OC(C)=O)ccc1N2C(=O)OCc1ccc(SCC2=C(C(=O)O)N3C(=O)[C@@H](NC(=O)Cc4ccccc4)[C@H]3SC2)cc1 [CDA, 3-(((4-(((3,7-diacetoxy-10H-phenoxazine-10-carbonyl)oxy)methyl)phenyl)thio)methyl)-8-oxo-7-(2-phenylacetamido)-5-thia-1-azabicyclo[4.2.0]oct-2-ene-2-carboxylic acid]
fluorescent signal of negative control (E. coli): slightly increased signal | limit of detection of β-lactamases [1]: 1 femtomole | effect of adding HRP and H2O2 on fluorescence with viable bacteria (E. coli/TEM-1; HRP 1 unit/mL, H2O2 1 μM, bacteria not lysed): contributed little to the fluorescence increase | number of bacteria detectable in one 96 well (E. coli/TEM-1; factoring the 100 μL assay volume): 100 bacteria | bacteria concentration detectable (E. coli/TEM-1; noninduced E. coli/TEM-1, H2O2 1 mM, within 2-3 hours): 10^6-10^7 c.f.u./mL | bacteria concentration reliably detected (E. coli/KPC-3): 10^5-10^6 c.f.u./mL
